The target in this assay is T1, Human CB1 receptor (Homo sapiens, UniProt P21554).
T1 construct: purchased Receptor Biology
As to the kind of experiment: hCB1 GTPγS binding. It counts as biochemical. The following applies: maximal stimulated binding determined with 10 μM Win 55,212-2. The protocol:
hCB1 and hCB2 GTPγS Binding
Human CB1 receptor from Receptor Biology (hCB1) or human CB2 receptor membranes (BioSignal) are thawed at 37° C., passed 3 times through a 25-gauge blunt-end needle and diluted in the GTPγS binding buffer (50 mM Hepes, 20 mM NaOH, 100 mM NaCl, 1 mM EDTA, 5 mM MgCl2, pH 7.4, 0.1% BSA). The EC50 and Emax of the compounds of the invention are evaluated from 10-point dose-response curves done in 300 μl with the appropriate amount of membrane protein and 100000-130000 dpm of GTPg^35S per well (0.11-0.14 nM). The basal and maximal stimulated binding is determined in absence and presence of 1 μM (hCB2) or 10 μM (hCB1) Win 55, 212-2 respectively. The membranes are pre-incubated for 5 minutes with 56.25 μM (hCB2) or 112.5 μM (hCB1) GDP prior to distribution in plates (15 μM (hCB2) or 30 μM (hCB1) GDP final). The plates are vortexed and incubated for 60 minutes at room temperature, filtered on Unifilters GF/B (presoaked in water) with the Tomtec or Packard harvester using 3 ml of wash buffer (50 mM Tris, 5 mM MgCl2, 50 mM NaCl, pH 7.0). The filters are dried for 1 hour at 55° C. The radioactivity (cpm) is counted in a TopCount (Packard) after adding 65 μl/well of MS-20 scintillation liquid. Antagonist reversal studies are done in the same way except that (a) an agonist dose-response curve is done in the presence of a constant concentration of antagonist, or (b) an antagonist dose-response curve is done in the presence of a constant concentration of agonist.
In general terms: GTPγS is a poorly hydrolysed GTP analogue; its binding reports G protein activation.

Emax data for 11 compounds are collected here from patent US20110086853A1, “Therapeutic Compounds” (priority 2009, published 2011).

T1 sequence (P21554 whole entry): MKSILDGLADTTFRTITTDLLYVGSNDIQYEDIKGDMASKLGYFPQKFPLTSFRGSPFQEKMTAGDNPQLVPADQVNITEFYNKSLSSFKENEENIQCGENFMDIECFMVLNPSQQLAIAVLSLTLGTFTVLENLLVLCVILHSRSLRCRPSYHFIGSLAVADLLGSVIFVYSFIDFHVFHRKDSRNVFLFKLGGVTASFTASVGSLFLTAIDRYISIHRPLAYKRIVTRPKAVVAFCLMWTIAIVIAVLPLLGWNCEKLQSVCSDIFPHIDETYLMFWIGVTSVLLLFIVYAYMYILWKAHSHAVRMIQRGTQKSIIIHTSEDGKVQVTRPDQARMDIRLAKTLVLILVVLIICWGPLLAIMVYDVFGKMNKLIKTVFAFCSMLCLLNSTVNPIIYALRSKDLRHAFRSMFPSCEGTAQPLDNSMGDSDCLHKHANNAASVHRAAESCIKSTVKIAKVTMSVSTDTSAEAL

The term Emax denotes the maximal effect, on the per cent scale that the assay sets. `CC(C)(C)c1nc2cc(S(=O)(=O)n3cc(C(=O)NC4CC4)cn3)ccc2n1CC1CCC(F)(F)CC1` [1-({2-tert-Butyl-1-[(4,4-difluorocyclohexyl)methyl]-1H-benzimidazol-5-yl}sulfonyl)-N-cyclopropyl-1H-pyrazole-4-carboxamide] gave an Emax of 122%.

As for `CC(C)NC(=O)c1cnn(S(=O)(=O)c2ccc3c(c2)nc(C(C)(C)C)n3CC2CCC(F)(F)CC2)c1` [1-({2-tert-Butyl-1-[(4,4-difluorocyclohexyl)methyl]-1H-benzimidazol-5-yl}sulfonyl)-N-isopropyl-1H-pyrazole-4-carboxamide], the maximal response (Emax) is 125%.

Regarding `CNC(=O)c1cnn(S(=O)(=O)c2ccc3c(c2)nc(C(C)(C)C)n3CC2CCC(F)(F)CC2)c1` [1-({2-tert-Butyl-1-[(4,4-difluorocyclohexyl)methyl]-1H-benzimidazol-5-yl}sulfonyl)-N-methyl-1H-pyrazole-4-carboxamide], the Emax amounted to 118%.

`CC(C)(C)c1nc2cc(S(=O)(=O)n3ccc(C(=O)NC4CC4)c3)ccc2n1CC1CCOCC1` [1-{[2-tert-Butyl-1-(tetrahydro-2H-pyran-4-ylmethyl)-1H-benzimidazol-5-yl]sulfonyl}-N-cyclopropyl-1H-pyrrole-3-carboxamide] returned an Emax of 142%.

As to `CCNC(=O)c1ccn(S(=O)(=O)c2ccc3c(c2)nc(C(C)(C)C)n3CC2CCOCC2)c1` [1-{[2-tert-butyl-1-(tetrahydro-2H-pyran-4-ylmethyl)-1H-benzimidazol-5-yl]sulfonyl}-N-ethyl-1H-pyrrole-3-carboxamide], the Emax stood at 138%.

Consider `CC(C)(C)c1nc2cc(S(=O)(=O)N3CCOC(C(=O)NC4CC4)C3)ccc2n1CC1CCC(F)(F)CC1` (centres unmarked) [4-({2-tert-Butyl-1-[(4,4-difluorocyclohexyl)methyl]-1H-benzimidazol-5-yl}sulfonyl)-N-cyclopropylmorpholine-2-carboxamide], for which the Emax was found to be 120%.

`CCNC(=O)[C@@H]1CN(S(=O)(=O)c2ccc3c(c2)nc(C(C)(C)C)n3CC2CCC(F)(F)CC2)CCO1` [(2S)-4-((2-tert-butyl-1-[(4,4-difluorocyclohexyl)methyl]-1H-benzimidazol-5-yl}sulfonyl)-N-ethylmorpholine-2-carboxamide]: the Emax worked out at 156%.

For the compound `CC(C)(C)c1nc2cc(S(=O)(=O)N3CCC[C@H](C(=O)NC4CC4)C3)ccc2n1CC1CCC(F)(F)CC1` [(3S)-1-({2-tert-Butyl-1-[(4,4-difluorocyclohexyl)methyl]-1H-benzimidazol-5-yl}sulfonyl)-N-cyclopropylpiperidine-3-carboxamide], the Emax was determined as 136%.

As for `CCCNC(=O)[C@H]1CCCN(S(=O)(=O)c2ccc3c(c2)nc(C(C)(C)C)n3CC2CCC(F)(F)CC2)C1` [(3S)-1-({2-tert-Butyl-1-[(4,4-difluorocyclohexyl)methyl]-1H-benzimidazol-5-yl}sulfonyl)-N-propylpiperidine-3-carboxamide], the Emax was 134%.

The compound `CCNC(=O)c1cnn(S(=O)(=O)c2ccc3c(c2)nc(C(C)(C)C)n3CC2CCOCC2)c1` [Example 27, 1-{[2-tert-Butyl-1-(tetrahydro-2H-pyran-4-ylmethyl)-1H-benzimidazol-5-yl]sulfonyl}-N-ethyl-1H-pyrazole-4-carboxamide] showed an Emax of 127%.

In turn, `CC(F)(F)c1nc2cc(S(=O)(=O)n3ccc(C(=O)NC4CC4)c3)ccc2n1CC1CCOCC1` [N-Cyclopropyl-1-{[2-(1,1-difluoroethyl)-1-(tetrahydro-2H-pyran-4-ylmethyl)-1H-benzimidazol-5-yl]sulfonyl}-1H-pyrrole-3-carboxamide] came in with an Emax of 119%.
